{
  "source": "patent US20090098173A1",
  "about": "“TOPICAL PAIN RELIEF PRODUCT” (priority 2007, published 2009)",
  "origin": "cited, not measured here",
  "conditions": "as described in U.S. Pat. No. 7,189,760 / 7,030,273",
  "data": [
    {"smiles": "CCOC(=O)CNC(=O)C1CC(C)CCC1C(C)C", "note": "(stereo not shown) [ethyl ester of N-[[5-methyl-2-(1-methylethyl)cyclohexyl]carbonyl]glycine]", "values": [
      {"measurement": "physiological cooling activity", "value": "substantially high physiological cooling activity"}
    ]}
  ]
}
